These results are taken from PubChem BioAssay (NCI).

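Where inhibition never reached the appropriate level, the endpoint shown equals the highest concentration tested. Otherwise, values were interpolated linearly from a five-concentration, 48-hour dose response in 96-well plates. TGI: concentration producing complete growth inhibition.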

Assay in all cases: NCI anticancer screen, dose series, 48 h
Assay [1] relates to ACHN renal.
Assay [2] concerns CAKI-1 renal.
Assay [3] deals with DU-145 prostate.
Assay [4] has as its system EKVX NSCLC.
In assay [5] the test system is HOP-92 NSCLC.
The test system of assay [6] is KM12 colon.
The subject of assay [7] is MCF7 breast.
Assay [8] deals with MDA-MB-231 breast.
The subject of assay [9] is MOLT-4 leukemia.
Assay [10] has as its system NCI-H226 lung.
Assay [11] deals with NCI-H522 lung.
Assay [12] has as its system SF-268 CNS.
Assay [13] concerns SW-620 colon.
Assay [14] relates to T-47D breast.
Assay [15] relates to COLO 205 colon.
Assay [16] has as its system SNB-19 CNS.
Assay [17] has as its system CCRF-CEM leukemia.

As for `C=CCC1(O)c2cccc(O)c2C(=O)c2cccc(O)c21` (configuration not stated), the TGI in assay [1] came to 69.2 µM; in assay [2], 68.2 µM; in assay [3], 54.5 µM; in [4] it was 60.1 µM; in [5] it was 42.3 µM; in [6] it was 85 µM. Moreover, the TGI stood at 76.9 µM in [7]; 53.4 µM in [8]; 53.6 µM in assay [9]; 74.3 µM in assay [10]; 42 µM in assay [11]; 85.4 µM in assay [12]. Further, the TGI in assay [13] is over 100 µM; in assay [14] it was 30.2 µM.
Regarding `CC1(C)OC2CN(C(=O)OCc3ccccc3)C(CO)C2O1` (configuration not stated), the TGI in assay [1], in assay [2], in assay [15], in assay [3], in assay [4] and in [5] was over 100 µM in each case. In addition, the TGI in assay [6], in assay [7], in assay [8], in [9], in [10] and in assay [11] was over 100 µM throughout. Moreover, the TGI in assay [12], in assay [16], in assay [13] and in assay [14] was over 100 µM each time.
Turning to `Cn1c2c(c3ccccc31)CC(=O)N1CCCCC1C21OCCO1` (configuration not stated), the TGI in assay [1], in [2], in [17], in assay [15], in [3] and in [4] was over 100 µM throughout. Moreover, the TGI in assay [5], in [6], in [7], in assay [8], in assay [9] and in assay [10] was over 100 µM in each case. Further, the TGI in assay [12], in assay [16], in assay [13] and in assay [14] was over 100 µM in each case.
Turning to `CO/N=C1/C(n2[nH]c(=O)n(-c3ccccc3)c2=O)C2C=CC1n1c(=O)n(-c3ccccc3)c(=O)n12` (configuration not stated), the TGI in [2], in assay [17], in assay [15], in [3], in [4] and in assay [6] was over 100 µM each time. For the same compound, the TGI in assay [7], in assay [8], in [9], in assay [10], in assay [11] and in [12] was over 100 µM throughout. Further, the TGI in [16], in [13] and in assay [14] was over 100 µM throughout.
As for `CC1(C)SC2C(NC(=O)Cc3ccccc3)C(=O)N2C1C(=O)O` (configuration not stated), the TGI in assay [1], in [2], in assay [15], in assay [3], in assay [4] and in assay [5] was over 100 µM throughout. For the same compound, the TGI in assay [6], in [7], in assay [8], in assay [9], in [10] and in assay [11] was over 100 µM in each case. Besides, the TGI in [12], in assay [16], in assay [13] and in assay [14] was over 100 µM in each case.
For the compound `CCOC(=O)c1c(NC(=O)c2ccccc2)sc2c1CCC2`, the TGI in assay [1], in assay [2], in [17], in assay [15], in assay [3] and in assay [4] was over 100 µM throughout. Further, the TGI in [6], in assay [7], in [8], in assay [9], in [10] and in assay [12] was over 100 µM each time. Besides, the TGI in assay [16] and in assay [14] was over 100 µM each time.
For `OCCCN(CCc1ccc(Cl)c(Cl)c1)CCN1CCCC1`, the TGI in assay [1], in assay [2], in [17], in assay [3], in assay [4] and in assay [5] was over 100 µM in each case. Further, the TGI in assay [6] was over 100 µM; in assay [7], 79.9 µM; in [8] it was over 100 µM; in assay [9], over 100 µM; in assay [11], 54.5 µM; in assay [12] it was over 100 µM. Further, the TGI in assay [16], in assay [13] and in assay [14] was over 100 µM in each case.
In the case of `N#Cc1nc(Cc2ccccc2)oc1N`, the TGI in [1], in assay [2], in assay [17], in [15], in assay [3] and in [4] was over 100 µM throughout. Also, the TGI in assay [6], in assay [7], in [8], in assay [9], in assay [10] and in [12] was over 100 µM in each case. In addition, the TGI in assay [16], in [13] and in assay [14] was over 100 µM throughout.
On to `CSc1cc(Cl)c(C)cc1S(=O)(=O)NC(=O)NNc1ccccn1`, for which the TGI in assay [1], in assay [2], in assay [17], in [15], in [3] and in assay [4] was over 100 µM throughout. Besides, the TGI in assay [6], in assay [7], in assay [8], in assay [9], in assay [10] and in assay [11] was over 100 µM in each case. Further, the TGI in assay [12], in assay [16], in [13] and in assay [14] was over 100 µM in each case.
